The source of these data is US10391104B2, “Application of antidepressant compound in preparation of antidepressant drugs and antidepressant health-care foods” (ZHEJIANG ACADEMY OF MEDICAL SCIENCES, priority 2015, dated 2019).

Data set [1] deals with Male Kunming mice. Description: mouse forced swimming test. The data set is classed as in vivo. The settings on record: for effect on immobility time compared with normal saline control: 15 mg/kg. As to the method:
(§1) Experimental method: the experiment was made using the mouse forced swimming test and tail suspension test according to the experimental methodology of pharmacology (see the description of these methods in Xu Shuyun et al. Experimental Methodology of Pharmacology. People's Medical Publishing House, 2005: 807-808) by subacute treatment (administered twice within 24 hours) and by intraperitoneal administration. The solvent control and the positive control with fluoxetine and imipramine were established in the experiment.
(§2) Administration method: totally 6 dosage groups of sarcostin were established: 0.05, 0.1, 0.25, 0.5, 1, 5 mg/kg. Male Kunming mice were randomly grouped in the experiment. All test samples were intraperitoneally administered at a volumetric dose of 0.1 mL/10 g. Administration frequency and time: test was made twice respectively in 0 and 19 h, and test was made in 24 h after the first administration. Positive control: 15 mg/kg of fluoxetine and 15 mg/kg of imipramine.

Data set [2] deals with Male Kunming mice. Description: mouse tail suspension test. In kind it is in vivo. How it is done: as §1, §2
For another data set, the system named is male ICR mice. Description: preliminary acute toxicity test. Particulars: for toxic and side reaction: preliminary acute toxicity test, no doses given; for toxic reaction: four times in 24 h, observed 7 days. The data set is classed as in vivo, mouse. As to the method:
(§3) Experimental method: 20 clean male ICR mice were randomly divided into two groups, and fasted for 12 h before the experiment. Sarcostin was administered many times based on its maximum dissolution amount and maximum administration volume. For the oral administration group, sarcostin was prepared with ultra-pure water (maximum dissolution amount: 1.5 mg/mL), and was intragastrically administered four times in 24 hours with 0.3 ml/10 g body weight each time, and with the total dosage of 180 mg/kg. For the intraperitoneal injection group, sarcostin was prepared with normal saline (maximum dissolution amount: 1.0 mg/mL), and was intraperitoneally injected four times in 24 hours with 0.3 ml/10 g body weight each time, and with the total dosage of 120 mg/kg.

The next data set deals with mice. The data set can be described thus: antidepressant activity test of compounds 3, 23 and derivatives. The settings on record: no doses given. In kind it is in vivo, mouse. How it is done:
The solvent control and the positive control with fluoxetine and imipramine were established in the experiment.
Administration method: totally 6 dosage groups of sarcostin were established: 0.05, 0.1, 0.25, 0.5, 1, 5 mg/kg. Male Kunming mice were randomly grouped in the experiment. All test samples were intraperitoneally administered at a volumetric dose of 0.1 mL/10 g. Administration frequency and time: test was made twice respectively in 0 and 19 h, and test was made in 24 h after the first administration.

Data set [3] in a line: maximum dissolution amount. In kind it is physicochemical. As to the method:
as §3

[4] abbreviates: 15 mg/kg i.p., twice within 24 h (0 and 19 h), test at 24 h.
Setting [5] is: tail suspension test, 15 mg/kg i.p., twice within 24 h (0 and 19 h), test at 24 h.

With `CN(C)CCCN1c2ccccc2CCc2ccccc21` [Imipramine, reference compound], the “effect on immobility time compared with normal saline control” value with Male Kunming mice [1] is given as “significantly reduced the immobility time”. Moreover, the “Immobility time (Average value, s)” value in the data set on Male Kunming mice [1] (setting [4]) was determined as 92.05 s; with Male Kunming mice [2] (setting [5]) it was 155.37 s. Besides, the “effect on immobility time compared with normal saline group” value in the data set with Male Kunming mice [2] (tail suspension test, 15 mg/kg) is “significantly reduced the immobility time”.
For `CNc1ccccc1C(=O)OC1CC2C3(C)CCC(O)CC3=CCC2(O)C2(O)CCC(O)(C(C)=O)C12C` (stereo not drawn) [compound 23, 12-O-(N-methyl) anthraniloyl deacetylmetaplexigenin], in the data set on male ICR mice, the “toxic and side reaction” value was “no significant toxic and side reaction”. Further, in the data set on mice, the antidepressant activity result is “significant antidepressant activities”.
For `CNCCC(Oc1ccc(C(F)(F)F)cc1)c1ccccc1` (stereo not drawn) [Fluoxetine, reference compound], the “effect on immobility time compared with normal saline control” value with Male Kunming mice [1] is given as “significantly reduced the immobility time”. For the same compound, the “Immobility time (Average value, s)” value turned out to be 79.00 s with Male Kunming mice [1] (setting [4]) and 132.45 s in the data set with Male Kunming mice [2] (setting [5]). Further, the “effect on immobility time compared with normal saline group” value in the data set with Male Kunming mice [2] (tail suspension test, 15 mg/kg) was “significantly reduced the immobility time”.
For the compound `C[C@H](O)[C@]1(O)CC[C@@]2(O)[C@]1(C)[C@H](O)C[C@@H]1[C@@]3(C)CC[C@H](O)CC3=CC[C@]12O` [Sarcostin], the preferred dose with Male Kunming mice [1] turned out to be 0.1 mg/kg. The “Immobility time (Average value, s)” value with Male Kunming mice [1] (0.05 mg/kg i.p., twice within 24 h) turned out to be 85.13 s; in the data set on Male Kunming mice [1] (0.1 mg/kg i.p., twice within 24 h), 83.63 s; in the data set on Male Kunming mice [1] (0.25 mg/kg i.p., twice within 24 h), 112.63 s; in the data set on Male Kunming mice [1] (0.5 mg/kg i.p., twice within 24 h), 118.19 s; in the data set with Male Kunming mice [1] (1 mg/kg i.p., twice within 24 h), 125.44 s; in the data set on Male Kunming mice [1] (5 mg/kg i.p., twice within 24 h) it was 91.50 s. The “Immobility time (Average value, s)” value in the data set on Male Kunming mice [2] (tail suspension test, 0.05 mg/kg i.p., twice within 24 h) was determined as 177.94 s; in the data set with Male Kunming mice [2] (tail suspension test, 0.1 mg/kg i.p., twice within 24 h) it was 167.77 s; in the data set with Male Kunming mice [2] (tail suspension test, 0.25 mg/kg i.p., twice within 24 h) it was 207.60 s; with Male Kunming mice [2] (tail suspension test, 0.5 mg/kg i.p., twice within 24 h), 166.46 s; with Male Kunming mice [2] (tail suspension test, 1 mg/kg i.p., twice within 24 h) it was 200.99 s; in the data set on Male Kunming mice [2] (tail suspension test, 5 mg/kg i.p., twice within 24 h), 177.05 s. Also, the “antidepressant activity compared with normal saline control” value in the data set on Male Kunming mice [1] (0.05 to 0.5 mg/kg) is “significant antidepressant activities”. Also, the preferred dosage in the data set on Male Kunming mice [2] (tail suspension test) came to 0.5 mg/kg. For the same compound, in the data set on Male Kunming mice [2] (tail suspension test, 0.1, 0.5 and 0.05 mg/kg groups), the antidepressant trend entry is “showed antidepressant trend”. In addition, the “effect on immobility time compared with normal saline group” value in the data set with Male Kunming mice [2] (tail suspension test, all sarcostin doses) is “did not significantly reduce the immobility time”. The toxic reaction entry with male ICR mice (intragastric, total 180 mg/kg) was “without obvious toxic and side reaction”; in the data set with male ICR mice (intraperitoneal injection, total 120 mg/kg), “without obvious toxic and side reaction”. The values for the maximum dissolution amount in data set [3] (normal saline) and in data set [3] (ultra-pure water) were 1.0 mg/mL and 1.5 mg/mL, respectively.
As for `CC=C(C)C(=O)OC(C)C1(O)CCC2(O)C3(O)CC=C4CC(O)CCC4(C)C3CC(OC(=O)C(C)=CC)C12C` (stereo not drawn) [compound 3, 12-O-tigloyl-20-O-tigloylsarcostin], the “toxic and side reaction” value in the data set with male ICR mice was “no significant toxic and side reaction”. Moreover, the antidepressant activity entry with mice was “significant antidepressant activities”.
